One compound from patent publication US8062669B2, “Vectorization system comprising nanoparticles of homogenous size of at least one polymer and at least one positively charged polysaccharide and method for the preparation thereof” (Bioalliance Pharma, priority 2002, dated 2011) can be followed below.

Description for CEM 4FX cells: (§1) The NIH 3T3 and NIH 3T3 EWS-Fli-1 (adherent cells) were sown on 6-well plates at 100,000 cells per well in their culture medium without puromycin and the IW35 cells (cells in suspension) in 12-well plates at the rate of 750,000 cells per well. Other cells in suspension CEM 4FX were also tested. They were sown at 10,000 cells per well in 96-well plates.
(§2) Different concentrations of CTAB and chitosan of various molecular weight were tested.
(§3) Two controls were used and corresponded to the cells in the culture medium on the one hand and in the culture medium containing 100 μl of NaCl 150 mM on the other hand. After 24 hours of incubation, the measurements of cytotoxicity were performed by a test measuring the activity of the mitochondrial dehydrogenase enzymes of the living cells by oxidation of MTT (3-(4,5-dimethyl thiazol-2-yl)-2,5-diphenyl tetrazolium bromide; SIGMA) in formazan. The amount of formazan produced is directly proportional to the number of metabolically active live cells. The cells were washed with PBS and 1 ml of the medium was added. The cells were then incubated at 37° C. with 100 μl of a solution of MTT (5 mg/ml in PBS) for 3 hours. 1 ml of a lysis solution (10% SDS, 10 mM Tris) was then added to each well. The cells were incubated at 37° C. overnight. The medium was homogenized and the optical density was read at 560 nm (Dynatech MRX).
Description for IW35 cells: as §1, §2, §3
Description for NIH 3T3 EWS-Fli1 cells: (§4) The NIH 3T3 and NIH 3T3 EWS-Fli-1 (adherent cells) were sown on 6-well plates at 100,000 cells per well in their culture medium without puromycin and the IW35 cells (cells in suspension) in 12-well plates at the rate of 750,000 cells per well.
(§5) For the first two cell types, the cells were sown 24 hours prior to their transfection. The medium was then eliminated and 100 μl of solution of the complex to be tested was brought into contact with the cells in 900 μl of medium.
as §2
(§6) Two controls were used and corresponded to the cells in the culture medium on the one hand and in the culture medium containing 100 μl of NaCl 150 mM on the other hand. After 24 hours of incubation, the measurements of cytotoxicity were performed by a test measuring the activity of the mitochondrial dehydrogenase enzymes of the living cells by oxidation of MTT (3-(4,5-dimethyl thiazol-2-yl)-2,5-diphenyl tetrazolium bromide; SIGMA) in formazan. The amount of formazan produced is directly proportional to the number of metabolically active live cells. The cells were washed with PBS and 1 ml of the medium was added. The cells were then incubated at 37° C. with 100 μl of a solution of MTT (5 mg/ml in PBS) for 3 hours. […] The medium was homogenized and the optical density was read at 560 nm (Dynatech MRX).
Description for NIH 3T3 cells: as §4, §5, §2, §6

For `CCCCCCCCCCCCCCCC[N+](C)(C)C.[Br-]` [CTAB, cetyl trimethyl ammonium bromide], the toxicity result with CEM 4FX cells is reported as “elevated toxicity at low concentrations”; in the data set with NIH 3T3 cells, “notable toxicity”; in the data set with IW35 cells it was “elevated toxicity at low concentrations”; with NIH 3T3 EWS-Fli1 cells it was “notable toxicity”.
